What was measured:
Nutsedge [1] = assay: Test B pre-emergence on Fallsington silt loam; format: in vivo, Cyperus rotundus; details: 0.03 kg/ha, 28 days
From the text: (§1) Two plastic bulb pans were filled with fertilized and limed Fallsington silt loam soil. One pan was planted with corn, sorghum, Kentucky bluegrass and several grassy weeds. The other pan was planted with cotton, soybeans, purple nutsedge (Cyperus rotundus), and several broadleaf weeds. The following grassy and broadleaf weeds were planted: crabgrass (Digitaria sanguinalis), barnyardgrass (Echinochloa crusgalli), wild oats (Avena fatua), johnsongrass (Sorghum halepense), dallisgrass (Paspalum dilatatum), giant foxtail (Setaria faberii), cheatgrass (Bromus secalinus), mustard (Brassica arvensis), cocklebur (Xanthium pensylvanicum), pigweed (Amaranthus retroflexus), morningglory (Ipomoea hederacea), cassia (Cassia tora), teaweed (Sida spinosa), velvetleaf (Abutilon theophrasti), and jimsonweed (Datura stramonium). A 12.5 cm diameter plastic pot was also filed with prepared soil and planted with rice and wheat. Another 12.5 cm pot was planted with sugarbeets. The above four containers were treated pre- emergence with several test compounds within the scope of the invention.
(§2) Twenty-eight days after treatment, the plants were evaluated and visually rated for response to the chemical treatments utilizing the rating system described previously for Test A. The data are summarized in Table B.

Wheat [2] = assay: Test F over-the-top soil/foliage treatment; format: in vivo, wheet; parameters: scale not given here; details: soil/foliage spray, ~14 days
Description: (§3) The test chemicals, dissolved in a non-phytotoxic solvent, were applied in an overall spray to the foliage and surrounding […] of selected plant species. […] Approximately fourteen days after treatment, all species were visually compared to untreated controls and rated for response to treatment.
(§4) All plant species were seeded in Woodstown sandy loam soil and grown in a greenhouse. The following species were grown in soil contained in plastic pots (25 cm diameter by 13 cm deep): soybeans, cotton, alfalfa, corn, rice, wheet, sorghum, velvetleaf (Abutilon theophrasti), sesbania (Sesbania exaltata), Cassia (Cassia tora), morningglory (Ipomoea hederacea), jimsonweed (Datura stramonium), cocklebur (Xanthium pensylvanicum), crabgrass (Digitaria spp.), nutsedge (Cyperus rotundus), barnyardgrass (Echinochloa crusgalli), giant foxtail (Setaria faberii) and wild oats (Avena fatua). The following species were grown in soil in a paper cup (12 cm diameter by 13 cm deep): sunflower, sugarbeets, and mustard. All plants were sprayed approximately 14 days after planting.

Morningglory [3] = assay: Test B pre-emergence on Fallsington silt loam; format: in vivo, Ipomoea hederacea; details: 0.03 kg/ha, 28 days
From the text: as §1, §2

Nutsedge [4] = assay: Test F over-the-top soil/foliage treatment; format: in vivo, Cyperus rotundus; parameters: scale not given here; details: soil/foliage spray, ~14 days
Description: as §3, §4

Ky. bluegrass = assay: Test B pre-emergence on Fallsington silt loam; format: in vivo, Kentucky bluegrass; parameters: scale not given here; details: 0.12 kg/ha, 28 days
From the text: as §1, §2

Wild Oats = assay: Test F over-the-top soil/foliage treatment; format: in vivo, Avena fatua; parameters: scale not given here; details: soil/foliage spray; 0.06 kg/ha; ~14 days
Description: as §3, §4

Rice = assay: Test F over-the-top soil/foliage treatment; format: in vivo; details: soil/foliage spray; 0.06 kg/ha; ~14 days
Description: as §3, §4

Soybeans = assay: Test F over-the-top soil/foliage treatment; format: in vivo; details: soil/foliage spray; 0.06 kg/ha; ~14 days
Description: as §3, §4

Corn [5] = assay: Test F over-the-top soil/foliage treatment; format: in vivo; details: soil/foliage spray; 0.06 kg/ha; ~14 days
Description: as §3, §4

Crabgrass = assay: Test F over-the-top soil/foliage treatment; format: in vivo, Digitaria spp.; parameters: scale not given here; details: soil/foliage spray; 0.06 kg/ha; ~14 days
Description: as §3, §4

Sorghum [6] = assay: Test F over-the-top soil/foliage treatment; format: in vivo; parameters: scale not given here; details: soil/foliage spray; 0.06 kg/ha; ~14 days
Description: as §3, §4

Alfalfa = assay: Test F over-the-top soil/foliage treatment; format: in vivo; parameters: scale not given here; details: soil/foliage spray, ~14 days
Description: as §3, §4

Giant Foxtail [7] = assay: Test F over-the-top soil/foliage treatment; format: in vivo, Setaria faberii; parameters: scale not given here; details: soil/foliage spray; 0.06 kg/ha; ~14 days
Description: as §3, §4

Jimsonweed = assay: Test F over-the-top soil/foliage treatment; format: in vivo, Datura stramonium; details: soil/foliage spray; 0.06 kg/ha; ~14 days
Description: as §3, §4

Barnyardgrass [8] = assay: Test B pre-emergence on Fallsington silt loam; format: in vivo, Echinochloa crusgalli; details: 0.12 kg/ha, 28 days
From the text: as §1, §2

Mustard = assay: Test B pre-emergence on Fallsington silt loam; format: in vivo, Brassica arvensis; details: 28 days
From the text: as §1, §2

Wheat [9] = assay: Test C pre-emergence on Fallsington silt loam soil; format: in vivo; details: 0.06 kg/ha, 28 days
From the text: The high herbicidal activity of two of the compounds from within the scope of the invention is evident from the results obtained in this test. The experiment concerned pre-emergence applications on soil. The containers used were 25 cm diameter plastic pots filled with Fallsington silt loam. One set of pots was planted to weeds, the seeds of which were uniformly mixed with the top 1.2 cm layer of soil. The species selected were: johnsongrass (Sorghum halepense), barnyardgrass (Echinochloa crusgalli), crabgrass (Digitaria sanguinalis), giant foxtail (Setaria faberii), velvetleaf (Abutilon theophrasti), jimsonweed (Datura stramonium), mustard (Brassica arvensis), and pigweed (Amaranthus retroflexus). Another set of pots were planted to the following crops with from one to four species per pot: corn (planting depth 3.7 cm), cotton, soybeans, sunflower, Clinton oats, wheat, Black Valentine beans, rice, sorghum, peas, flax, and peanuts (all at 2.5 cm depth), cucumbers, cabbage, alfalfa, safflower, sugarbeets, tomato, spinach, barley, and Kentucky bluegrass (all at 1.2 cm depth). Immediately after planting, the test chemical was applied to the soil surfaces dissolved in a non-phytotoxic solvent. One pot from the weed phase and one of each of the crop species were left untreated for the purpose of comparison. The treated and untreated pots were promptly watered with approximatley 4 mm of simultated rainfall and then held in a greenhouse for several weeks. Visual weed and crop response ratings were made 28 days after treatment utilizing the rating system as described above for Test A. The data are given in Table C.

Cocklebur = assay: Test B pre-emergence on Fallsington silt loam; format: in vivo, Xanthium pensylvanicum; details: 28 days
From the text: as §1, §2

Barnyardgrass [10] = assay: Test F over-the-top soil/foliage treatment; format: in vivo, Echinochloa crusgalli; parameters: scale not given here; details: soil/foliage spray; 0.06 kg/ha; ~14 days
Description: as §3, §4

Sesbania = assay: Test F over-the-top soil/foliage treatment; format: in vivo, Sesbania exaltata; parameters: scale not given here; details: soil/foliage spray, ~14 days
Description: as §3, §4

Sugarbeets = assay: Test B pre-emergence on Fallsington silt loam; format: in vivo; parameters: scale not given here; details: 28 days
From the text: as §1, §2

Wheat [11] = assay: Test B pre-emergence on Fallsington silt loam; format: in vivo; parameters: scale not given here; details: 0.03 kg/ha, 28 days
From the text: as §1, §2

Corn [12] = assay: Test B pre-emergence on Fallsington silt loam; format: in vivo; parameters: scale not given here; details: 0.12 kg/ha, 28 days
From the text: as §1, §2

Morningglory [13] = assay: Test F over-the-top soil/foliage treatment; format: in vivo, Ipomoea hederacea; details: soil/foliage spray; 0.06 kg/ha; ~14 days
Description: as §3, §4

Sorghum [14] = assay: Test B pre-emergence on Fallsington silt loam; format: in vivo; details: 0.03 kg/ha, 28 days
From the text: as §1, §2

Velvetleaf = assay: Test F over-the-top soil/foliage treatment; format: in vivo, Abutilon theophrasti; details: soil/foliage spray; 0.015 kg/ha; ~14 days
Description: as §3, §4

Johnsongrass = assay: Test B pre-emergence on Fallsington silt loam; format: in vivo, Sorghum halepense; parameters: scale not given here; details: 0.12 kg/ha, 28 days
From the text: as §1, §2

Pigweed = assay: Test B pre-emergence on Fallsington silt loam; format: in vivo, Amaranthus retroflexus; details: 0.03 kg/ha, 28 days
From the text: as §1, §2

Giant Foxtail [15] = assay: Test B pre-emergence on Fallsington silt loam; format: in vivo, Setaria faberii; details: 0.12 kg/ha, 28 days
From the text: as §1, §2

COc1cc(C)nc(NC(=O)NS(=O)(=O)c2ccccc2OS(C)(=O)=O)n1 [Compound 2, 2-Hydroxy-N-[(4-methoxy-6-methylpyrimidin-2-yl)aminocarbonyl]benzenesulfonamide, methanesulfonate]
10C: Nutsedge response rating (Nutsedge [4]; 0.06 kg/ha) | Ky. bluegrass response rating (Ky. bluegrass) | Wild Oats response rating (Wild Oats) | Rice response rating (Rice) | Corn response rating (Corn [5]) | Crabgrass response rating (Crabgrass) | Sorghum response rating (Sorghum [6]) | Alfalfa response rating (Alfalfa; 0.06 kg/ha) | Giant Foxtail response rating (Giant Foxtail [7]) | Jimsonweed response rating (Jimsonweed) | Barnyardgrass response rating (Barnyardgrass [8]) | Mustard response rating (Mustard; 0.03 kg/ha) | Mustard response rating (Mustard; 0.12 kg/ha) | Cocklebur response rating (Cocklebur; 0.12 kg/ha) | Barnyardgrass response rating (Barnyardgrass [10]) | Sesbania response rating (Sesbania; 0.06 kg/ha) | Sugarbeets response rating (Sugarbeets; 0.03 kg/ha) | Sugarbeets response rating (Sugarbeets; 0.12 kg/ha) | Corn response rating (Corn [12]) | Morningglory response rating (Morningglory [13]) | Sorghum response rating (Sorghum [14]) | Johnsongrass response rating (Johnsongrass) | Giant Foxtail response rating (Giant Foxtail [15])
2C: Nutsedge response rating (Nutsedge [4]; 0.015 kg/ha)
7G: Morningglory response rating (Morningglory [3]) | Pigweed response rating (Pigweed)
9C: Wheat response rating (Wheat [2]; 0.06 kg/ha) | Soybeans response rating (Soybeans) | Sesbania response rating (Sesbania; 0.015 kg/ha)
7C: Alfalfa response rating (Alfalfa; 0.015 kg/ha)
6G: Nutsedge response rating (Nutsedge [1])
5G: Wheat response rating (Wheat [9]) | Cocklebur response rating (Cocklebur; 0.03 kg/ha) | Wheat response rating (Wheat [11]) | Velvetleaf response rating (Velvetleaf)
1C: Wheat response rating (Wheat [2]; 0.015 kg/ha)
